Assay results as given in patent US4469631A, “Fusion peptides comprising an expressible bacterial gene and β-endorphin” (The Regents of the University of California, priority 1982, dated 1984).

Columns and labels:
opiate receptors = conditions: Li, C. H., et al, Proc. Natl. Acad. Sci. 76, 3276 (1979); cited from earlier work
[1] = system: prostaglandin E1-stimulated adenylate cyclase of NG 108-15 cells; conditions: literature; cited from earlier work
[2] = system: antiserum directed against mouse β-endorphin; experiment: Immunological activity: competition with 125I-labeled human β-endorphin for antiserum (radioimmunoassay); assay type: binding; conditions: dilution series of extract, 4° C., 24 hours; FIG. 5
Method: Immunological activity of β-endorphin produced according to the present invention was measured by its ability to compete with radioactively labeled human β-endorphin for antiserum directed against mouse β-endorphin. The human hormone differs from that of mouse only at position 27, where a tyrosine is present instead of histidine residue. […] Antiserum to mouse β-endorphin was prepared as described by Allen, et al., Proc. Nat'l. Acad. Sci. 75, 4972 (1978). […]
In the assay, a dilution series of β-endorphin sample prepared according to the present invention was incubated with a fixed amount of labeled human endorphin and a fixed amount of antiserum. […] The percentage of radioactivity remaining in the pellet was compared to the total radioactivity determined prior to incubation and plotted as a function of the concentration of the cell extracts.

[3] = system: rat brain opiate receptors; experiment: Receptor binding activity: competitive inhibition of binding of labeled opiate agonist or antagonist to rat brain membranes; conditions: result in words
Method: The opiate receptor preparation was prepared from rat membrane preparation isolated from male Sprague-Dawley rats (200-220 g) killed by decapitation. The brains, except for the cerebellum, were homogenized in 40 volumes of ice-cold Tris-HCl buffer pH 7.7. The homogenates were centrifuged at 600 g for 5 minutes, then the supernatant fluid was centrifuged at 49,000 g at 4° C. for 15 minutes. The pellets were re-suspended in 5 ml of 0.05 M Tris-HCl buffer pH 7.7 and incubated at 37° C. for 30 minutes, then centrifuged at 49,000 g at 4° C. for another 15 minutes. The final pellet from each rat brain was then re-suspended in 40 ml of 0.05 M Tris-HCl buffer pH 7.7 containing 100 μg/ml of Bacitracin and used for the binding assays.
The binding experiments were performed either at 25° C. for 20 minutes or at 0° C. for 3 hours. The reaction mixtures contained 1 ml of the rat membrane preparation as described, 1.5 nM of ^3 H-methionine enkephalinamide (38 Ci/m Mole) or ^3 H-naloxone (25 Ci/m Mole) together with bacterial extracts from pβgal or pβgal-end transformed cultures (4.5 mg protein for enkephalinamide rections and 0.65 μg protein for naloxone reactions). At the end of the binding reaction the mixture was filtered under vacuum over glass fiber filters (Whatman, Clifton, N.J., GH-B filters). […]

[4] = system: prostaglandin E1-stimulated adenylate cyclase of NG 108-15 cells; experiment: Inhibition of prostaglandin E1-stimulated adenylate cyclase activity in neuroblastoma-glioma hybrid cell line NG 108-15; assay type: biochemical; conditions: result in words; for reversal of the adenylate cyclase inhibition by naloxone: naloxone added

Molecule: Gly^31 -endorphinylglycine
- opiate agonist potency relative to endorphin (opiate receptors): more potent opiate agonists than endorphin itself

Molecule: C=CCN1CC[C@]23c4c5ccc(O)c4O[C@H]2C(=O)CC[C@@]3(O)[C@H]1C5 [naloxone]
- prevention of the inhibitory effect of morphine on stimulated adenylate cyclase [1]: the inhibitory affect of morphine can be prevented by naloxone

Molecule: Gly^31 -endorphin (YGGFMTSEKSQTPLVTLFKNAIIKNAYKKGG; Beta-endorphin; UniProt P01189 237-267, looked up, variant E31G) ["super-agonist" endorphin analog described by Li, C; H]
- opiate agonist potency relative to endorphin (opiate receptors): more potent opiate agonists than endorphin itself

Molecule: β-endorphin (YGGFMTSEKSQTPLVTLFKNAIIKNAHKKGQ; Beta-endorphin; UniProt P01193 205-235, looked up) [mouse β-endorphin, 31 amino acid polypeptide, released from the bacterial β-galactosidase fusion protein according to the invention]
- competition with labeled human β-endorphin for antiserum against mouse β-endorphin [2]: immunologically reactive with antiserum raised against mouse endorphin
- displacement of opiate agonist (enkephalinamide) and opiate antagonist (naloxone) from rat brain opiate receptors [3]: effective inhibitor
- displacement of opiate agonist (enkephalinamide) and opiate antagonist (naloxone) from rat brain opiate receptors ([3]; listed as Endorphin): displaced both the opiate agonist and the opiate antagonist
- inhibition of prostaglandin E1 stimulation of adenylate cyclase activity [4]: inhibited the adenylate cyclase activity
- reversal of the adenylate cyclase inhibition by naloxone [4]: the inhibition was reversed by the addition of naloxone
- reversal of the adenylate cyclase inhibition by naloxone ([4]; listed as Endorphin): inhibition was reversed by addition of the opiate antagonist naloxone
- inhibition of prostaglandin E1 stimulation of adenylate cyclase activity ([4]; listed as Endorphin): significant inhibition

Molecule: CN1CC[C@]23c4c5ccc(O)c4O[C@H]2[C@@H](O)C=C[C@H]3[C@H]1C5 [morphine]
- inhibition of prostaglandin E1 stimulation of adenylate cyclase [1]: This stimulation is inhibited by morphine

Molecule: Gly^31 -endorphinamide
- opiate agonist potency relative to endorphin (opiate receptors): more potent opiate agonists than endorphin itself
